From US5122515A, “Nutrient composition containing dipeptides and method for administering the same” (priority 1990, dated 1992)

What was measured:
[1] = In vivo clearance of tyrosyl-arginine after intravenous bolus in rats; set-up: species or system Sprague Dawley rats; conditions: rat
Experimental: In vivo clearance was assessed in five large (370 g) mature (122 days old) Sprague Dawley rats. The animals were anaesthetised with sodium pentabarbitone and remained anaesthetised during the entire procedure. A large bolus of tyrosyl-arginine (82.1 2.8 μg/g rat, Mean SD) was injected intravenously into a central vein and rapid blood samples (n=11) (total volume=2.0 ml) were obtained through a central venous catheter over 20 minutes. We observed that tyrosyl-arginine was cleared rapidly by rats with an approximate half life of 30 seconds. There was a large and rapid rise in Arg concentration reaching a maximum after 2.5 min and falling to baseline levels after 20 minutes.

[2] = In vitro clearance of tyrosyl-arginine in human whole blood
Experimental: Supplementation of an intravenous nutrition solution with the dipeptide tyrosyl-arginine facilitates the infusion of the poorly soluble amino acid tyrosine. We have initiated the first investigations into the metabolism of exogenous tyrosyl-arginine (TryArg). In vitro clearance of tyrosyl-arginine, and the constituent amino acids arginine and tyrosine was assessed in blood from two healthy normal volunteers on five occasions. Whole blood was incubated with tyrosyl-arginine (initially 547 nmol/ml) at 37°°C. for 40 minutes. Throughout this period samples were taken to determine concentration of the dipeptide and individual amino acids.

| SMILES | time of fall to baseline levels ([1]; iv) [min] | time to maximum concentration ([1]; iv) [min] | time over which the concentration, after its rise, fell to baseline [2] [h] | half-life ([1]; Sprague Dawley, 82.1 μg/g rat, anaesthetised rats, intravenous bolus of tyrosyl-arginine into a central vein, read-out: approximate half life (in vivo clearance) (converted)) [min] | time by which degradation was complete ([2]; human whole blood, 37°C) [h] | half-life at 547 nmol/ml ([2]; human, blood) [min] | concentration in whole blood (mean) ([2]; time 0 min, human whole blood incubated with tyrosyl-arginine (initially 547 nmol/ml) at 37°C) [µM] | concentration in whole blood (mean) ([2]; time 0.5 min, human whole blood incubated with tyrosyl-arginine at 37°C) [µM] | concentration in whole blood (mean) ([2]; time 1.0 min, human whole blood incubated with tyrosyl-arginine at 37°C) [µM] | concentration in whole blood (mean) ([2]; time 2.0 min, human whole blood incubated with tyrosyl-arginine at 37°C) [µM] | concentration in whole blood (mean) ([2]; time 5.0 min, human whole blood incubated with tyrosyl-arginine at 37°C) [µM] | concentration in whole blood (mean) ([2]; time 10.0 min, human whole blood incubated with tyrosyl-arginine at 37°C) [µM] | concentration in whole blood (mean) ([2]; time 20.0 min, human whole blood incubated with tyrosyl-arginine at 37°C) [µM] | concentration in whole blood (mean) ([2]; time 40.0 min, human whole blood incubated with tyrosyl-arginine at 37°C) [µM] | concentration in whole blood (mean) ([2]; time 60.0 min, human whole blood incubated with tyrosyl-arginine at 37°C) [µM] | concentration in whole blood (mean) ([2]; time 120.0 min, human whole blood incubated with tyrosyl-arginine at 37°C) [µM] |
| --- | --- | --- | --- | --- | --- | --- | --- | --- | --- | --- | --- | --- | --- | --- | --- | --- |
| N=C(N)NCCC[C@H](N)C(=O)O [Arg, arginine] | 20 | 2.5 | 2 | – | – | – | – | – | – | – | – | – | – | – | – | – |
| N[C@@H](Cc1ccc(O)cc1)C(=O)O [Tyr, tyrosine] | – | – | 2 | – | – | – | – | – | – | – | – | – | – | – | – | – |
| N=C(N)NCCC[C@H](NC(=O)[C@@H](N)Cc1ccc(O)cc1)C(=O)O [Tyr--Arg, tyrosyl-arginine] | – | – | – | ~0.5 | ≤ 2 | 4.2 | 547 | 389.85 | 338.65 | 278.94 | 245.52 | 220.90 | 149.77 | 547.0 | 55.57 | 0 |
